Source: US20230295096A1, “PYRAZOLE CARBOXAMIDE COMPOUNDS FOR TREATMENT OF HBV” (ASSEMBLY BIOSCIENCES, INC., priority 2020, published 2023)

Test system: HBV
Assay: Viral load production from HepAD38 cells, qPCR of the HBV core sequence in supernatant
Type: cell-based
Settings: HepAD38 cells, 5 days, HBV DNA in supernatant by qPCR; Table 1 ranges; read-out: Activity (viral load lowering EC50)
Description: HepAD38 cells grown in a T-150 flask (Corning, cat#: 430825) with Growth Medium (DMEM/F12 (1:1) (Hyclone, cat#: SH30023.02), 1X Pen/Strep (Invitrogen, cat#: 15140-122), 10% FBS (Tissue Culture Biologics, cat#: 101), 250 µg/mL G418 (Alfa Aesar, cat#: J62671), 1 µg/mL Tetracycline (Teknova, cat#: T3320)) were detached with 0.25% trypsin-EDTA (Invitrogen, cat#: 25200-056). Tetracycline-free treatment medium (15 mL DMEM/F12 (1:1) 1× Pen/step, with 2% FBS, Tet-system approved (Clontech, cat#: 631106) were then added to mix, transferred into a 50 ml conical tube (Falcon, cat#: 21008-918,) and spun at 1300 rpm for 5 min. Pelleted cells were then re-suspended/washed with 50 mL of 1X DPBS (Invitrogen, cat#: 14190-136) 2 times and 50 mL treatment medium twice. HepAD38 cells were then re-suspended with 10 mL of treatment medium, syringed and counted. Wells of 96-well clear bottom TC plate (Corning, cat#: 3904,) were seeded at 50.000 cells/well in 180 µL of treatment medium, and 20 µL of either 10% DMSO (Sigma, cat#: D4540) as controls or a 10X solution of test compounds in 10% DMSO in treatment media was added for a final compound concentration starting at 10 µM, and plates were incubated in 5% CO2 incubator at 37° C. for 5 days.
Subsequently viral load production was assayed by quantitative PCR (qPCR) of the HBV core sequence. PCR reaction mixture containing forward primers HBV-f 5′-CTGTGCCTTGGGTGGCTTT-3′ (IDT DNA), Reverse primers HBV-r 5′-[…]-3′ (IDT DNA), Fluorescent TaqMan^tm Probes HBV-probe 5′-FAM/AGCTCCAAA/ZEN/[…]/3IABkFQ-3′ (IDT DNA), 10 µL/well of PerfeCTa® qPCR ToughMix® (Quanta Biosciences, Cat#: 95114-05 K), and 6 µL/well of DEPC water (Alfa Aesar, cat#: J62087) was prepared. Four µL of supernatant was added to 16 µL of the reaction mixture in a qPCR plate (Applied Biosytems, Cat#: 4309849), sealed with a film (Applied Biosystems, Cat#: 4311971), centrifuged for a few seconds, and subsequently run on an Applied Biosystems VIIA7. The PCR mixture was incubated at 45° C. for 5 min, then 95° C. for 10 min, followed by 40 cycles of 10 seconds at 95° C. and 20 seconds at 60° C. Viral load was quantified against known HBV DNA standards by using ViiA™ 7 Software. Viral load in the supernatant from wells with treated cells were compared against viral load in supernatant from DMSO control wells (≥ 3 per plate). Cell viability assay was performed with CellTiter-Glo Luminescent Cell Viability Assay (Promega, cat#: G7573) with modification. Mixed appropriate amount of CellTiter-Glo (CTG) 1X DPBS in a 1:1 ratio, added 100 uL of the mixture to each well followed completely removal of all supernatant in each well without touching cell surface. Incubated the plate at room temperature for 10 min on an orbital shaker, and then read the plate with a plate reader (TECAN M1000 or Envision). EC50 or CC50 values were calculated through curve-fitting of the four-parameter nonlinear-logistic-regression model (GraphPad Prism or Dotmatics). CC50 values were all >10 µM.

Compound | EC50 [nM]
3-Amino-N-(3-chloro-4-fluorophenyl)-5-(5-hydroxy-5-(1-methyl-1H-imidazol-4-yl)octahydropentalen-2-yl)-2λ^2-pyrazole-4-carboxamide [Example 20] | < 10
Cn1nc(C2CC3CC(CNC(=O)C4CC4)CC3C2)c(C(=O)Nc2ccc(F)c(Cl)c2)c1N (single isomer, unassigned) [Example 42, 5-Amino-N-(3-chloro-4-fluorophenyl)-3-(5-(cyclopropanecarboxamidomethyl)octahydropentalen-2-yl)-1-methyl-1H-pyrazole-4-carboxamide] | < 10
CN(C)C(=O)NCC1CC2CC(c3nn(C)c(N)c3C(=O)Nc3ccc(F)c(Cl)c3)CC2C1 (single isomer, unassigned) [Example 43, 5-Amino-N-(3-chloro-4-fluorophenyl)-3-(5-((3,3-dimethylureido)methyl)octahydropentalen-2-yl)-1-methyl-1H-pyrazole-4-carboxamide] | < 10
Cn1nc(C2CC3CC(CNC(=O)C(C)(C)O)CC3C2)c(C(=O)Nc2ccc(F)c(Cl)c2)c1N (single isomer, unassigned) [Example 44, 5-Amino-N-(3-chloro-4-fluorophenyl)-3-(5-((2-hydroxy-2-methylpropanamido)methyl)octahydropentalen-2-yl)-1-methyl-1H-pyrazole-4-carboxamide] | < 10
C[C@@H](NC(=O)C1CC2CC(c3nn(C)c(N)c3C(=O)Nc3ccc(F)c(Cl)c3)CC2C1)C(F)(F)F (single isomer, unassigned) [Example 102] | 10 to 50
CC(NC(=O)N1CC2CC(c3nn(C)c(N)c3C(=O)Nc3ccc(F)c(Cl)c3)CC2C1)C(F)(F)F (single isomer, unassigned) [Example 129, 5-(5-Amino-4-((3-chloro-4-fluorophenyl)carbamoyl)-1-methyl-1H-pyrazol-3-yl)-N-(1,1,1-trifluoropropan-2-yl)hexahydrocyclopenta[c]pyrrole-2(1H)-carboxamide] | 50 to 500

Same assay, conditions: Hepatitis B virus, HePAD38, 120 h, HepAD38 cells, 5 days, HBV DNA in supernatant by qPCR; Table 1 ranges; read-out: Activity (viral load lowering EC50)

Compound | EC50 [nM]
Cn1nc(C2CC3CC(CNC(=O)C(C)(C)O)CC3C2)c(C(=O)Nc2ccc(F)c(Cl)c2)c1N (single isomer, unassigned) [Example 39, 5-Amino-N-(3-chloro-4-fluorophenyl)-3-(5-((2-hydroxy-2-methylpropanamido)methyl)octahydropentalen-2-yl)-1-methyl-1H-pyrazole-4-carboxamide] | < 10
Cn1nc(C2CC3CC(CNC(=O)C4CC4)CC3C2)c(C(=O)Nc2ccc(F)c(Cl)c2)c1N (single isomer, unassigned) [Example 40, 5-Amino-N-(3-chloro-4-fluorophenyl)-3-(5-(cyclopropanecarboxamidomethyl)octahydropentalen-2-yl)-1-methyl-1H-pyrazole-4-carboxamide] | < 10
CN(C)C(=O)NCC1CC2CC(c3nn(C)c(N)c3C(=O)Nc3ccc(F)c(Cl)c3)CC2C1 (single isomer, unassigned) [Example 41, 5-Amino-N-(3-chloro-4-fluorophenyl)-3-(5-((3,3-dimethylureido)methyl)octahydropentalen-2-yl)-1-methyl-1H-pyrazole-4-carboxamide] | < 10
C[C@@H](NC(=O)C1CC2CC(c3nn(C)c(N)c3C(=O)Nc3ccc(F)c(Cl)c3)CC2C1)C(F)(F)F (single isomer, unassigned) [Example 101] | 10 to 50
C[C@H](NC(=O)C1CC2CC(c3nn(C)c(N)c3C(=O)Nc3ccc(F)c(Cl)c3)CC2C1)C(F)(F)F (single isomer, unassigned) [Example 103] | 10 to 50
CC(NC(=O)N1CC2CC(c3nn(C)c(N)c3C(=O)Nc3ccc(F)c(Cl)c3)CC2C1)C(F)(F)F (single isomer, unassigned) [Example 128, 5-(5-Amino-4-((3-chloro-4-fluorophenyl)carbamoyl)-1-methyl-1H-pyrazol-3-yl)-N-(1,1,1-trifluoropropan-2-yl)hexahydrocyclopenta[c]pyrrole-2(1H)-carboxamide] | 50 to 500
